Experimental data as given in patent US7229762B2, “Proteomic screening for redox state dependent protein—protein interactions” (Duke University Medical Center, priority 2003, dated 2007).

Tests used:
[1] = tested on: caspase-3 interactions with ASM, IRG, PGM, iNOS
Procedure: For this purpose, protein-protein interactions were determined in a yeast two-hybrid system by the method described in Uetz, P., et al., Nature 403, 623–627 (2000) and Ito, T., et al., PNAS, 97, 1143–1147 (2000). The baits were all known proteins involved in apoptotic cascades. The preys were a library of macrophage genes (mRNA) expressed in response to cytokines that induce apoptosis. Mating pairs or transfectants were exposed to continuous nitric oxide presence at levels and flux rates mimicking those which are generated in macrophages, over 18 hours (the time course, over which apoptosis occurs in these cells). Room air was used in the determinations to mimic the cell condition at first and subsequently low pO2 (about 5 mm Hg) was used to improve specificity and increase yield. New partners and/or inhibition of partners that were otherwise present, were sought.

[2] = target: T1, caspase-3 interaction with iNOS / ASM (Homo sapiens, UniProt P42574); assay: Modified yeast two-hybrid, NO-dependent growth of iNOS/caspase-3 and ASM/caspase-3 clones; assay type: cell-based; settings: 72 hrs, triple-deficient medium
T1 construct: expressed in transfected cells; host or cells: Saccharomyces cerevisiae CG-1945 Δyhb1
T1 sequence (P42574 1-277): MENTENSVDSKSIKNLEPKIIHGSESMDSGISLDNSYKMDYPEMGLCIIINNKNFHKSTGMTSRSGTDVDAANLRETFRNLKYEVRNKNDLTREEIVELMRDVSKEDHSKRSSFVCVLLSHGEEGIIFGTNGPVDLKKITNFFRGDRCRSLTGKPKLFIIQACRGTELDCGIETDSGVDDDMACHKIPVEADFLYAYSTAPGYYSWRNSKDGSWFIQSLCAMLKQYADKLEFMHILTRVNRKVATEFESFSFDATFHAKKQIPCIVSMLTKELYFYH
Procedure: (§1) Yeast (Δyhb1) were transformed with Gal4 BD-caspase-3 plasmid (bait) and a cDNA library (Gal4 AD prey plasmids) derived from activated (NO generating) macrophages. Screening was performed as described in the methods below. DETA-NO at less than 300 μM generates NO without inhibiting yeast growth (monitored by absorbance at 600 nm). Steady state NO concentrations are maintained at ˜100 nM–1 μM range for several days as measured with an NO electrode (not shown).
Auxotrophic selection was carried out on agar plates (15 cm in diameter) enriched in 50 mM phosphate buffer (pH 7.2; His-Trp-Leu (triple)-deficient buffered medium (TDBM)). […] Prey plasmids were isolated from positive yeast clones and then re-introduced into the bait strain to confirm bait-prey interactions. Method 2: After cells were seeded on 1.5% agar they were covered with 3% low melting point agar, which in turn was layered with culture medium. NO donors (e.g. DETA-NO; 300 μM final concentration) were added to the liquid layer every 24 hours. Colonies are grown for 4 days as described in ref 9. Method 3:
Auxotrophic selection was carried out in TDBM. Transformation with the cDNA library was followed by overnight growth in medium deficient in tryptophan and leucine. Transformants were then grown for 3 days in His-deficient medium supplemented with DETA-NO (typically 200 μM final concentration). […]

[3] = target: T2, caspase-3/ASM interaction in HEK-293 cells (Homo sapiens, UniProt P42574); assay: Caspase-3 immunoprecipitation, ASM blot, HEK-293 cells exposed to DETA-NO; assay type: cell-based; settings: 200 μM DETA-NO
T2 construct: endogenous in cells; host or cells: HEK-293
T2 sequence (P42574 29-277): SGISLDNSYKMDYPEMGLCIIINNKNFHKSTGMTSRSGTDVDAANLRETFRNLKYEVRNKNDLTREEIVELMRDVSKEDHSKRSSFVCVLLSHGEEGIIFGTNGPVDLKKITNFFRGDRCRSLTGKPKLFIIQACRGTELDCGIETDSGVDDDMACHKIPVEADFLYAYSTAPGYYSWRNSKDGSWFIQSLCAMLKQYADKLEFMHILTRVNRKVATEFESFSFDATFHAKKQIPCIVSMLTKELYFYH
T2 sequence (P17405 47-631 partner): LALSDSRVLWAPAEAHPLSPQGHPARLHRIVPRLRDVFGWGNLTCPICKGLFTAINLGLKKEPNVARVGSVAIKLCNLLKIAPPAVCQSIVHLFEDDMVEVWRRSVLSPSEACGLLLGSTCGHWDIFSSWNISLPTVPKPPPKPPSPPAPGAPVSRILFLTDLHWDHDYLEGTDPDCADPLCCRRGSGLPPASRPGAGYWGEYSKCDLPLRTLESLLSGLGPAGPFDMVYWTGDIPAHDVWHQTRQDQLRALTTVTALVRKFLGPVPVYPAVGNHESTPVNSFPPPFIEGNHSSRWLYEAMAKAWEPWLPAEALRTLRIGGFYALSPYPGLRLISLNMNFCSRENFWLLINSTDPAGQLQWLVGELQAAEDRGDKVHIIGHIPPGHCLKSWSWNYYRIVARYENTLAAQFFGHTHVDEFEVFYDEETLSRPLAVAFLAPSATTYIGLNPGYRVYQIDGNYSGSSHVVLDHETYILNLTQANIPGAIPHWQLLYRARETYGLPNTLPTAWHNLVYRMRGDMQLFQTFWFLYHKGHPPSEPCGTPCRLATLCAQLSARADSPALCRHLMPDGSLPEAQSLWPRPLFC
Procedure: (§2) Thirty million cells were lysed by gentle homogenization in 1 ml IP buffer (10 mM NaPi, 100 mM NaCl, 1 mM EDTA, pH 7.9, with protease inhibitor cocktail). The supernatant obtained by centrifugation at 20,000 g for 10 min was used for immunoprecipitation. Caspase-3 immunoprecipitates (2.5 μg anti-caspase-3 monoclonal antibody, Transduction Laboratories) were washed, separated on 10% SDS-PAGE, and blotted with ASM antisera (Santa Cruz Biotechnology); 5% of the sample was blotted for caspase-3.
Bulotta et al., 2001; De Nadal et al., 2000). […] To define further the NO requirement for this interaction, caspase-3 was immunoprecipitated from wild-type HEK cells and from HEK cells stably transfected with nNOS (Bredt et al., 1992), in the presence and absence of the NOS inhibitor L-NMMA. Little or no ASM was pulled down in precipitates from wild-type HEK cells, whereas ASM was readily detected in the precipitates from nNOS-expressing cells (FIG. 2). Moreover, ASM/caspase-3 interactions were observed not only between the 57 kD mature form of ASM, but also with the ASM proform (75 kD) and a smaller processed form (47 kD), which may be alternatively regulated (Ferlinz et al., 1994; Hurwitz et al., 1994).

[4] = assay type: physicochemical
Procedure: as §1
(§3) To assess the possibility of NO-dependent regulation of protein-protein interactions in a cellular context, a modified yeast two-hybrid screening methodology was developed. The first step was to delete the yeast flavohemoglobin gene (Liu et al., 2000), which consumes NO very efficiently and thus obfuscates NO signaling. […] It was also necessary to establish a concentration range of DETA-NO over which physiological amounts of NO could be generated in these assays without impairing yeast growth (FIG. 1A) (100 μM DETA-NO produces steady state concentrations of ˜300 nM NO in yeast culture medium, as determined using an NO electrode)
Purified caspase-3 was incubated in the presence or absence 20 μM DETA-NO for 60 min (30 nM steady state NO), followed by incubation with ASM at 37° C. for 2 hrs, and IP with caspase-3 antibody. […] S-nitrosylation of caspase-3 by NO was separately verified by photolysis-chemiluminesence (Mannick et al., 1999). The interaction of caspase-3 with ASM was measured as ASM activity in caspase-3 IP's (pH 5.0). Little or no ASM activity was present in IP's with caspase-3 antibody of either caspase-3 or ASM in isolation.
To determine the relevant target(s) of NO, ASM/caspase-3 co-precipitations were carried out following NO treatment of each partner alone. Using an ASM activity assay, the amounts of ASM that could be precipitated with a procaspase-3 antibody was assessed from co-incubates (2 hours at 37° C.) of ASM (20 pmol) and caspase-3 in limiting amounts (2.5 pmol). […]

Yeast (Δyhb1) = assay type: cell-based, Saccharomyces cerevisiae; settings: growth monitored by absorbance at 600 nm
Procedure: The YHB1 gene was deleted from yeast strain CG-1945 and the absence of NO consumption activity was verified (Liu et al., 2000). Yeast two-hybrid screening was then performed in the CG-1945-Ayhbl host. […]
as §1, with “Screening was performed as described in the methods below.” left out
as §3, with “developed.” for “developed. The first step was to delete the yeast flavohemoglobin gene (Liu et al., 2000), which consumes NO very efficiently and thus obfuscates NO signaling.”

[5] = tested on: ASM/caspase-3 interaction in nNOS-expressing HEK cells; assay: Caspase-3 IP from nNOS-expressing HEK cells, ASM isoforms; assay type: cell-based, Human; settings: L-NMMA 3 mM
Procedure: as §2
Amounts of ASM isoforms (47, 57, 75 kDa) in caspase-3 immunoprecipitates (IP) from wild type (WT) vs. nNOS-expressing HEK cells were normalized with respect to the amounts of caspase-3 in the IPs (FIG. 2, bar graphs); IPs were performed in the presence and absence of the NOS inhibitor, LNMMA (3 mM). nNOS vs. WT (single asterisk, P<0.01) and nNOS vs. nNOS+LNMMA (double asterisk, p<0.05). A and B, n=7–14; C, n=3–5.
Bulotta et al., 2001; De Nadal et al., 2000). […] To define further the NO requirement for this interaction, caspase-3 was immunoprecipitated from wild-type HEK cells and from HEK cells stably transfected with nNOS (Bredt et al., 1992), in the presence and absence of the NOS inhibitor L-NMMA. Little or no ASM was pulled down in precipitates from wild-type HEK cells, whereas ASM was readily detected in the precipitates from nNOS-expressing cells (FIG. 2). […]

[6] = target: T3, eNOS/caspase-3 interaction in eNOS-expressing HEK cells (Bos taurus, UniProt P29473); assay: Caspase-3 IP from eNOS-expressing HEK cells, amounts of eNOS; assay type: cell-based, Human; settings: L-NMMA 3 mM with L-arginine 1 mM/Ca2+ 200 μM
T3 construct: expressed in transfected cells; host or cells: HEK-293 expressing eNOS
Procedure: HEK cell lysates from wild type (WT), nNOS- and eNOS-expressing cells were immunoprecipitated with caspase-3 monoclonal antibodies and blotted (IB) for nNOS, eNOS, and caspase-3, respectively. eNOS, nNOS and caspase-3 in whole cell lysates (Lysate) and in IPs from those lysates (7–20% SDS-PAGE) are shown. Data are representative of 5 similar experiments. eNOS and nNOS were not detectable in control IPs (not shown).
eNOS-expressing HEK cells were treated with L-arginine (1 mM)/Ca^2+ (200 μM) (to activate NOS) in the presence or absence of L-NMMA (3 mM) (to inhibit NOS activation). Amounts of eNOS were quantified from scanned Western blots (7–20% SDS-PAGE) and normalized with respect to amounts of caspase in the IP (bar graph), (n=3).
To probe further the physiological relevance of NO-dependent protein-protein interactions of NOS, the effects of NOS activity on binding of caspase-3 were assessed. […] Thus, NOS reversibly regulates its own binding to capase-3 through NO production.

OO [hydrogen peroxide]
effect of presence of hydrogen peroxide on determined interactions [1]: did not produce or modify the majority of determined interactions
interaction dependent on hydrogen peroxide in the 4 clones ([1]; added repeatedly or generated continuously with glucose oxidase): none was found

NCCN(CCN)/[N+]([O-])=N/O [DETA-NO, diethylenetriamine-NO]
concentration that optimally induced in yeast the interactions of caspase-3 with ASM and iNOS [2]: 200 µM
co-precipitation of ASM with caspase-3 [3]: immunoprecipitation of caspase-3 brought down the 57 kD active form of ASM
half-life [4]: ~18 h
steady state / maximum NO concentration ([4]; 20 μM DETA-NO, 60 min): 30 nM
steady state concentration of NO ([4]; 100 μM DETA-NO, yeast culture medium, NO electrode): ~300 nM
DETA-NO concentration that generates NO without inhibiting yeast growth (Yeast (Δyhb1)): less than 300 μM

CNC(=N)NCCC[C@H](N)C(=O)O [L-NMMA]
effect on interaction between ASM isoforms and caspase-3 [5]: significantly reduced the interaction
effect on eNOS interaction with caspase-3 after NOS activation [6]: almost completely reversed this effect
